Results taken from patent publication US12134663B2, “Cationic peptides for activating Lck” (Interk Peptide Therapeutics Limited, priority 2018, dated 2024).
Where no end group is shown, it is not given here. [ ]: non-standard residue; d: D form.

Tests used:
[1] = system: anti-CD3 stimulated PBMCs; test: IL-12p70 secretion in anti-CD3 stimulated PBMCs; assay type: cell-based, human; conditions: 24 hours
Method: The ability of Lck activating polypeptides to alter IL-12 (IL-12p70) secretion was examined further. In brief, anti-CD3 stimulated PBMCs were cultured together with the Lck activating polypeptides RVKVKVVVV-RRRRRRRRR (SEQ ID NO: 58, “IK15800”), RSKAKNPLY-RRRRRRRRR (SEQ ID NO: 24, “IK14800”), and RVKVKVVVV-RRRRRRRRR (SEQ ID NO: 58) and RSKAKNPLY-RRRRRRRRR (SEQ ID NO: 24) comprising only D amino acids (SEQ ID NO: 111, “IKD15800”, and SEQ ID NO: 129, “IKD14800”, respectively), in the presence and absence of anti-CD40L blocking antibody for 24 hours. Supernatants were assessed for IL-12p70 levels by ELISA.
The ability of Lck activating polypeptides to alter IL-12 (IL-12p70) secretion was examined relative to no peptide. In brief, PBMCs were cultured together with anti-CD3 (1 ug/ml) and the Lck activating polypeptide RSKAKNPLY-RRRRRRRRR (SEQ ID NO: 24) or RVKVKVVVV-RRRRRRRRR (SEQ ID NO: 58) for 24 or 72 hours. Supernatants were assessed for IL-12p70 levels by ELISA.

CD4+ T cells = test: pSTAT4 expression in stimulated T cell assay; assay type: cell-based, human; conditions: 0-1.25 μM, 72 hours; data not shown
From the text: The effect of Lck activating polypeptides on intracellular pSTAT4 expression in CD4+ and CD8+ T cells in a stimulated T cell assay was examined. In brief, isolated T cells (CD3+) were stimulated with anti-CD3 anti-CD28 Dynabeads™ and cultured together with the Lck activating polypeptides RSKAKNPLY-RRRRRRRRR (SEQ ID NO: 24), RVKVKVVVV-RRRRRRRRR (SEQ ID NO: 58) and RVKVKVVVV-RRRRRRRRR (SEQ ID NO: 58) comprising only D amino acids (SEQ ID NO: 111), over a 5-concentration range plus vehicle control (0-1.25 μM) for 72 hours after which […] assessed for p-STAT4 expression by flow cytometry.

CD3neg CD56+ NK cells = CD3neg CD56+ NK cells within stimulated PBMCs (Ki67, CD25, CD215, CD360); assay type: cell-based, human; conditions: data not shown
Method: The ability of Lck activating polypeptides to induce proliferation of isolated human CD3^neg CD56^+ NK cells within PBMCs was examined. In brief, anti-CD3 stimulated PBMCs were cultured together with the Lck activating polypeptide rvkvkvvvv-rrrrrrrrr (SEQ ID NO: 111, IKD15800) for 72 hours after which CD3^neg CD56^+ NK cells were assessed for Ki67 expression by flow cytometry. Ki67 is a proliferation marker used to determine the growth fraction of a given cell population, in this case CD3^neg CD56^+ NK cells.

isolated T cells (CD3+) = test: IL-2 secretion from isolated T cells (CD3+); assay type: cell-based, human; conditions: anti-CD3 anti-CD28 Dynabeads, 0-1.25 μM, 72 hours
Method: In brief, isolated T cells (CD3+) were stimulated with anti-CD3 anti-CD28 Dynabeads™ and cultured together the Lck activating polypeptides RSKAKNPLY-RRRRRRRRR (SEQ ID NO: 24, “IK14800”), RVKVKVVVV-RRRRRRRRR (SEQ ID NO: 58, “IK15800”), and RVKVKVVVV-RRRRRRRRR ([…]) comprising only D amino acids (i.e. rvkvkvvvv-rrrrrrrrr; […], “IKD15800”), over a 5-concentration range plus vehicle control (0-1.25 μM) for 72 hours after which supernatants were collected and assessed for IL-2 by ELISA.

Lck = target: T1, Lck (Homo sapiens, UniProt P06239); test: In vitro Lck activation kinase study (Eurofins); assay type: biochemical; conditions: peptide 1 μM; relative to control
T1 construct: purchased Eurofins Pharma Discovery Services UK Limited
T1 sequence (P06239 whole entry): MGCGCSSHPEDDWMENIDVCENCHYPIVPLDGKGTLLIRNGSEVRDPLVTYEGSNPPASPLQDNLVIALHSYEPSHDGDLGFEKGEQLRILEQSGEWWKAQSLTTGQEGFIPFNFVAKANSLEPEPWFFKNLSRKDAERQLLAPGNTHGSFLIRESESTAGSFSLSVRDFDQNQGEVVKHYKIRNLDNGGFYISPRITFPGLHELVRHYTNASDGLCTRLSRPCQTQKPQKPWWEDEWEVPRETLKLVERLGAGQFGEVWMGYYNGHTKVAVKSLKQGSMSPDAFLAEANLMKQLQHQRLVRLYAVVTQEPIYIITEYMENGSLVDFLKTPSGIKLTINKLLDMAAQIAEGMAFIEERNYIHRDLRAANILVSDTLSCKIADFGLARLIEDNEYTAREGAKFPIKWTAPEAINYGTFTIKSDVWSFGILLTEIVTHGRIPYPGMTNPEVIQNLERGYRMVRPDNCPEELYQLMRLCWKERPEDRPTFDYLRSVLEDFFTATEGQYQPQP
Method: The ability of polypeptides of the present invention to activate Lck was examined in vitro. Lck is member of the Src family of tyrosine kinases. […] All results in are percentage Lck activity relative to control (100%).
Test polypeptides were assessed at a concentration of 1.0 μM.
The ability of polypeptides of the present invention to activate Src family kinases was examined in vitro. Kinase activation studies utilising peptides were carried out as described in Example 1, and all kinase activity values are shown as percentage relative to control.
The ability of polypeptides comprising both lysine and arginine to activate Lck in vitro was examined. Lck activation studies utilising peptides were carried out as described in Example 1, and all kinase activity values are shown as percentage relative to control.

exhausted CD4+ T cells = test: CD4+ T cell exhaustion assay, CD25 on restimulation; assay type: cell-based, murine; conditions: 72 hours; relative to IK14000 control peptide
From the text: A CD4+ T cell exhaustion assay using a murine model (Tg4 Ly5.1 (MBP-Tracker Mouse), B10PIxC57BL/6) was used whereby CD4+ T cell receptor transgenic T cells are stimulated with wild-type myelin basic protein peptide (WT-MBP) to produce fully responsive effector T cells or altered peptide ligand peptide MBP (APL-MBP) to produce exhausted T cells. These are rested in IL-2 and then a secondary stimulation with APC, a dose of APL-MBP peptide along with any treatments under investigation.
Spleens from the aforementioned mice were removed and processed to generate a single cell suspension of splenocytes. MBP-Tracker splenocytes were resuspended at 3×10^6/mL and stimulated with WT-MBP (control, non-exhausted cells) or APL-MBP (to generate exhausted cells). Cells were stimulated for 72 hr. Following stimulation, T cells were purified by Ficoll density gradient, and subsequently re-plated at 2×10^6/mL in 20 U/mL IL-2 for four days. […] Following 48-72b hours of culture the cells were assessed by flow cytometry for markers of IL-2Ra and proliferation (CD25 and Ki-67, respectively) and supernatant was collected for assessment of cytokine production (IFN-γ and TNF-α) by ELISA or multiplexed immunoassays. […]

[2] = system: isolated human CD8+ T cells; test: IFN-γ secretion in stimulated CD8+ T cell assay; assay type: cell-based; conditions: anti-CD3 anti-CD28 Dynabeads, 24 hours
Method: The ability of Lck activating polypeptides to alter IFN-γ secretion by isolated human CD8+ T cells in a stimulated CD8+ T cell assay was examined. In brief, Isolated CD8+ T cells were stimulated with anti-CD3 anti-CD28 Dynabeads™ and cultured together with the Lck activating polypeptides RRRRRRRRR (SEQ ID NO: 6, IK00900) and RSKAKNPLY-RRRRRRRRR (SEQ ID NO: 24, IK14800) for 24 hours after which supernatants were assessed for IFN-γ by ELISA.
In brief, Isolated CD8+ T cells were stimulated with anti-CD3 anti-CD28 Dynabeads™ and cultured together with the Lck activating polypeptide RSKAKNPLY-RRRRRRRRR (SEQ ID NO: 24), comprising only D amino acids (SEQ ID NO: 129, IKD14800), for 24 hours after which supernatants were assessed for IFN-γ by ELISA.

isolated CD4+ T cells = test: IL-18Ra expression on stimulated CD4+ T cells; assay type: cell-based, human; conditions: 24 hours; data not shown
Method: Isolated CD4+ T cells were stimulated with anti-CD3 anti-CD28 Dynabeads™ and cultured together with the Lck activating polypeptides RSKAKNPLY-RRRRRRRRR (SEQ ID NO: 24), and RSKAKNPLY-RRRRRRRRR (SEQ ID NO: 24) comprising only D amino acids (SEQ ID NO: 129), for 24 hours after which cells were assessed for IL-18Ra expression by flow cytometry.

[3] = system: isolated human CD4+ T cells; test: IFN-γ secretion in stimulated CD4+ T cell assay; assay type: cell-based; conditions: anti-CD3 anti-CD28 Dynabeads, 24 hours
Method: The ability of Lck activating polypeptides to alter IFN-γ secretion by isolated human CD4+ T cells in a stimulated CD4+ T cell assay was also examined. In brief, Isolated CD4+ T cells were stimulated with anti-CD3 anti-CD28 Dynabeads™ and cultured together with the Lck activating polypeptides RRRRRRRRR (SEQ ID NO: 6, IK00900) and RSKAKNPLY-RRRRRRRRR (SEQ ID NO: 24, IK14800) for 24 hours after which supernatants were assessed for IFN-γ by ELISA.
The ability of Lck activating polypeptides comprising D amino acids to alter IFN-γ secretion by isolated human CD4+ T cells in a stimulated CD4+ T cell assay was also examined. In brief, Isolated CD4+ T cells were stimulated with anti-CD3 anti-CD28 Dynabeads™ and cultured together with the Lck activating polypeptide RSKAKNPLY-RRRRRRRRR (SEQ ID NO: 24, IK14800), or the Lck activating polypeptide RSKAKNPLY-RRRRRRRRR (SEQ ID NO: 24) comprising only D amino acids (SEQ ID NO: 129, IKD14800), for 24 hours after which supernatants were assessed for IFN-γ by ELISA.

isolated CD8+ T cells = test: IL-18Ra expression on stimulated CD8+ T cells; assay type: cell-based, human; conditions: 24 hours; data not shown
Method: The effect of Lck activating polypeptides on IL-18Ra expression on CD4+ and CD8+ T cells in stimulated CD4+ and CD8+ T cell assays was examined. In brief, isolated CD8+ T cells were stimulated with anti-CD3 anti-CD28 Dynabeads™ and cultured together with the Lck activating polypeptides RSKAKNPLY-RRRRRRRRR (SEQ ID NO: 24), and RSKAKNPLY-RRRRRRRRR (SEQ ID NO: 24) comprising only D amino acids (SEQ ID NO: 129), for 24 hours after which cells were assessed for IL-18Ra expression by flow cytometry.

[4] = system: immature monocyte derived DCs (iMoDCs); test: Dendritic cell phenotype (CD14 expression) in immature DC cultures; assay type: cell-based; conditions: CD40L 5 ug/mL and anti-CD3, 72 hours; data not shown
Method: The effect of CD40L on dendritic cell phenotype (CD14 expression) in isolated immature DC cell cultures was examined. In brief, immature monocyte derived DCs (iMoDCs) were derived from isolated CD14+ monocytes cultured for 7 days in MoDC differentiation media. iMoDCs were cultured for 72 hours in the presence of CD40L (5 ug/mL) and anti-CD3 (1 ug/mL). After 72 hours, cells were assessed for CD14 and CD11c expression by flow cytometry to determine DC cell phenotype.
In brief, immature monocyte derived DCs (iMoDCs) were derived from isolated CD14+ monocytes cultured for 7 days in Mo-DC differentiation media. iMoDCs were cultured for 72 hrs in the presence of test peptides over a 5-point concentration curve plus vehicle (0-1.25 μM) and anti-CD3 (1 μg/mL). After 72 hrs, cells were assessed for CD14 and CD11c expression by flow cytometry to determine DC cell phenotype. Data presented indicates the mean respective CD14 positive or negative cell populations (%) within CD11c positive population in response to peptide treatment, +/− SEM, n=4. Data were analysed by RM two-way ANOVA with Dunnett's post-test comparing each peptide concentration with vehicle, *p<0.05, **p<0.01, ***p<0.001.

rvkvkvvvv-rrrrrrrrr ([dR][dV][dK][dV][dK][dV][dV][dV][dV][dR][dR][dR][dR][dR][dR][dR][dR][dR]) [IKD15800]
IL-12 (IL-12p70) secretion relative to cultures with anti-CD40L blocking antibody [1]: induce IL-12 secretion
p-STAT4 expression on CD4+ T cells (CD4+ T cells): increase p-STAT4 expression
proliferating population of CD3neg CD56+ NK cells (Ki67) (CD3neg CD56+ NK cells; 72 hours): increased the proliferating population
population of CD3neg CD56+ NK cells that were CD25 positive (CD3neg CD56+ NK cells): increased the population
population of CD3neg CD56+ NK cells that were CD215 positive (CD3neg CD56+ NK cells): increased the population
population of CD3neg CD56+ NK cells that were CD360 positive (CD3neg CD56+ NK cells): increased the population
IL-2 secretion relative to control (isolated T cells (CD3+)): induce IL-2 secretion

rskaknplyrrrrrrrrr ([dR][dS][dK][dA][dK][dN][dP][dL][dY][dR][dR][dR][dR][dR][dR][dR][dR][dR]) [IKD14800]
increase in Lck activity (Lck): 490%
IL-12 (IL-12p70) secretion relative to cultures with anti-CD40L blocking antibody [1]: induce IL-12 secretion
expression of CD25 in exhausted CD4+ T cells upon restimulation (exhausted CD4+ T cells): increased
IFN-γ secretion relative to no peptide control [2]: induces IFN-γ secretion
IL-18Ra expression on CD4+ T cells (isolated CD4+ T cells): increase IL-18Ra expression
IFN-γ secretion relative to no peptide control [3]: induces IFN-γ secretion
IL-18Ra expression on CD8+ T cells (isolated CD8+ T cells): increase IL-18Ra expression

B1: CD40L: CD40L (5 ug/mL) added to immature monocyte derived DC cultures (protein, UniProt P29965 113-261, looked up)
CD40 ligand, soluble form: MQKGDQNPQIAAHVISEASSKTTSVLQWAEKGYYTMSNNLVTLENGKQLTVKRQGLYYIYAQVTFCSNREASSQAPFIASLCLKSPGRFERILLRAANTHSSAKPCGQQSIHLGGVFELQPGASVFVNVTDPSQVSHGTGFTSFGLLKL
proportion of CD14 negative CD11c+ dendritic cells [4]: increased the proportion of CD14 negative CD11c+ dendritic cells
